Converted amounts (≈) assume the structure as drawn. Where two headings read alike, the source gives them in different places. Where a SMILES comes first, the peptide text is derived from it. [ ]: non-standard residue; d: D form. Gly(N(CH2)2(3-indolyl)) = O=C(O)CNCCc1c[nH]c2ccccc12; Gly(N-CH2CH2-imidazol-4-yl) = O=C(O)CNCCc1c[nH]cn1; Nspe = C[C@H](NCC(=O)O)c1ccccc1; Nlys = NCCCCNCC(=O)O
What was measured:
[1] = HPLC to confirm peptoid decomposition after counter ion substitution; type: physicochemical; conditions: HPLC at 220 nm; HCl and AcOH
Procedure: FIGS. 76 to 83 are the HPLC results for Peptoids 1, 10, 11, 14, 15, 29, 32 and 37 of the present inventive concept to confirm the decomposition of the peptoids after counter ion substitution using (a) HCl and (b) AcOH.
Referring to FIGS. […], HPLC was performed for Peptoids 1, 10, 11, 14, 15, 29, 32 and 37 of the present inventive concept. Since the chloride (HCl) is a stronger acid than TFA, it can decompose acid-vulnerable peptoid compounds.

S. aureus ATCC 25923 = tested on: S. aureus ATCC 25923
In short: (§1)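 Cation-adjusted MHB2 cultures (18 h, subcultured 4 h) adjusted to 2×10^5–5×10^5 CFU/mL in medium with 0.02% BSA and 0.001% acetic acid.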

E. coli ATCC25922 = tested on: E. coli ATCC25922
In short: as §1

red blood cells = assay: Hemolysis assay; type: cell-based, Sprague-Dawley mouse
In short: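 Peptoid is mixed with 10% (v/v) PBS-washed erythrocytes (male Sprague-Dawley […], 13 weeks) and held 1 h at 37 °C. Hemolysis is calculated from 540 nm absorbance of the supernatant, with PBS as 0% and Triton X-100 as 100%.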

[2] = Tables 11-13, 24 hours at 37° C., maximum concentration 25 μM
[3] = Table 18, TFA salt vs counter ion-substituted (HCl, AcOH) peptoids

| SMILES | peptoid decomposition after counter ion substitution (in words) [1] | MIC S. aureus ATCC 25923 (S. aureus ATCC 25923; ATCC 25923) [µM] | MIC S. aureus ATCC 25923 (S. aureus ATCC 25923; [2]) [µM] | antimicrobial activity (in words) (E. coli ATCC25922; E. coli and S. aureus, compared to Peptoid 1, parent peptoid or TFA salt as stated) | MIC E. coli ATCC25922 (E. coli ATCC25922; [3]) [µM] | MIC E. coli ATCC25922 (E. coli ATCC25922; [2]) [µM] | HC10 (red blood cells) [µM] | HC50 (red blood cells) [µM] | Hmax (100 μM) (red blood cells) | MIC S. aureus ATCC 25923 (S. aureus ATCC 25923; [3]) [µM] | HD10 (red blood cells) | HD50 (red blood cells) | MIC E. coli ATCC25922 (E. coli ATCC25922; ATCC25922) [µM] |
| --- | --- | --- | --- | --- | --- | --- | --- | --- | --- | --- | --- | --- | --- |
| C[C@@H](c1ccccc1)N(CC(N)=O)C(=O)CN(C(=O)CN(CCCCN)C(=O)CN(C(=O)CN(CCc1c[nH]c2ccccc12)C(=O)CN(CCCCN)C(=O)CN(CCc1c[nH]c2ccccc12)C(=O)CN(C(=O)CN(CCCCN)C(=O)CN(C(=O)CN(C(=O)CNCCCCN)[C@@H](C)c1ccccc1)[C@@H](C)c1ccccc1)[C@@H](C)c1ccccc1)[C@@H](C)c1ccccc1)[C@@H](C)c1ccccc1 [Peptoid 15, H-NLys-Nspe-Nspe-NLys-Nspe-NhTrp-NLys-NhTrp-Nspe-NLys-Nspe-Nspe-NH2] | almost no peptoid decomposition occurred | 1.6 (≈ 3.04 µg/mL) | 1.6 (≈ 3.04 µg/mL) | antimicrobial activity was reduced | 3.1 | 6.3 (≈ 12 µg/mL) |  |  |  |  |  |  |  |
| C[C@@H](c1ccccc1)N(CC(=O)N(CCCCN)CC(=O)N(CC(=O)N(CC(=O)N(CCCCN)CC(=O)N(CC(=O)N(CC(=O)N(CCCCN)CC(=O)N(CCc1c[nH]c2ccccc12)CC(=O)N(CCc1c[nH]c2ccccc12)CC(N)=O)[C@@H](C)c1ccccc1)[C@@H](C)c1ccccc1)[C@@H](C)c1ccccc1)[C@@H](C)c1ccccc1)C(=O)CN(C(=O)CNCCCCN)[C@@H](C)c1ccccc1 [Peptoid 11-1] (H-[Nlys][Nspe][Nspe][Nlys][Nspe][Nspe][Nlys][Nspe][Nspe][Nlys][Gly(N(CH2)2(3-indolyl))][Gly(N(CH2)2(3-indolyl))]-NH2) |  |  |  |  | 3.1 |  | 10.1 | 21.5 | 113.9 ± 1.7% | 3.1 |  |  |  |
| C[C@@H](c1ccccc1)N(CC(N)=O)C(=O)CN(C(=O)CN(CCCCN)C(=O)CN(C(=O)CN(C(=O)CN(CCCCN)C(=O)CN(C(=O)CN(C(=O)CN(CCCCN)C(=O)CN(Cc1ccccc1)C(=O)CN(Cc1ccccc1)C(=O)CNCCCCN)[C@@H](C)c1ccccc1)[C@@H](C)c1ccccc1)[C@@H](C)c1ccccc1)[C@@H](C)c1ccccc1)[C@@H](C)c1ccccc1 [Peptoid 46] |  |  | 0.8 (≈ 1.43 µg/mL) |  |  | 6.3 (≈ 11.3 µg/mL) | 6.9 | 36.5 | 90.8 ± 2.7% |  |  |  |  |
| C[C@@H](c1ccccc1)N(CC(=O)N(CCCCN)CC(=O)N(CCc1c[nH]c2ccccc12)CC(=O)N(CCc1c[nH]c2ccccc12)CC(N)=O)C(=O)CN(CCCCN)C(=O)CN(CCCCN)C(=O)CN(C(=O)CN(C(=O)CN(CCCCN)C(=O)CN(C(=O)CN(C(=O)CNCCc1c[nH]cn1)[C@@H](C)c1ccccc1)[C@@H](C)c1ccccc1)[C@@H](C)c1ccccc1)[C@@H](C)c1ccccc1 [Peptoid 81] (H-[Gly(N-CH2CH2-imidazol-4-yl)][Nspe][Nspe][Nlys][Nspe][Nspe][Nlys][Nlys][Nspe][Nlys][Gly(N(CH2)2(3-indolyl))][Gly(N(CH2)2(3-indolyl))]-NH2) |  | 6.3 (≈ 11.9 µg/mL) |  |  |  |  |  |  | 5.7 ± 0.1 |  | >100.0/>100.0 | >100.0/>100.0 | 6.3 (≈ 11.9 µg/mL) |
| C[C@@H](c1ccccc1)N(CC(N)=O)C(=O)CN(C(=O)CN(CCCCN)C(=O)CN(C(=O)CN(C(=O)CN(CCCCN)C(=O)CN(C(=O)CN(C(=O)CN(CCCCN)C(=O)CN(CCc1c[nH]c2ccccc12)C(=O)CN(C(=O)CNCCCCN)[C@@H](C)c1ccccc1)[C@@H](C)c1ccccc1)[C@@H](C)c1ccccc1)[C@@H](C)c1ccccc1)[C@@H](C)c1ccccc1)[C@@H](C)c1ccccc1 [Peptoid 10-2] |  |  |  |  | 6.3 |  | 14.1 | 29.4 | 102.3 ± 11.3% | 1.6 |  |  |  |
| C[C@@H](c1ccccc1)N(CC(N)=O)C(=O)CN(C(=O)CN(CCCCN)C(=O)CN(CCc1c[nH]c2ccccc12)C(=O)CN(CCc1c[nH]c2ccccc12)C(=O)CN(CCCCN)C(=O)CN(CCc1c[nH]c2ccccc12)C(=O)CN(CCc1c[nH]c2ccccc12)C(=O)CN(CCCCN)C(=O)CN(C(=O)CN(C(=O)CNCCCCN)[C@@H](C)c1ccccc1)[C@@H](C)c1ccccc1)[C@@H](C)c1ccccc1 [Peptoid 20] |  |  | 1.6 (≈ 3.16 µg/mL) |  |  | 6.3 (≈ 12.4 µg/mL) | 8.2 | 33.9 | 106.7 ± 3.5% |  |  |  |  |
| NCCCCNCC(=O)N(CCc1c[nH]c2ccccc12)CC(=O)N(CCc1c[nH]c2ccccc12)CC(=O)N(CCCCN)CC(=O)N(CCc1c[nH]c2ccccc12)CC(=O)N(CCc1c[nH]c2ccccc12)CC(=O)N(CCCCN)CC(=O)N(CCc1c[nH]c2ccccc12)CC(=O)N(CCc1c[nH]c2ccccc12)CC(=O)N(CCCCN)CC(=O)N(CCc1c[nH]c2ccccc12)CC(=O)N(CCc1c[nH]c2ccccc12)CC(N)=O [Peptoid 23] (H-[Nlys][Gly(N(CH2)2(3-indolyl))][Gly(N(CH2)2(3-indolyl))][Nlys][Gly(N(CH2)2(3-indolyl))][Gly(N(CH2)2(3-indolyl))][Nlys][Gly(N(CH2)2(3-indolyl))][Gly(N(CH2)2(3-indolyl))][Nlys][Gly(N(CH2)2(3-indolyl))][Gly(N(CH2)2(3-indolyl))]-NH2) |  |  | 1.6 (≈ 3.41 µg/mL) |  |  | 25 (≈ 53.3 µg/mL) | 17.1 | 45.2 | 72.2 ± 0.3% |  |  |  |  |
| C[C@@H](c1ccccc1)N(CC(=O)N(CCCCN)CC(=O)N(CC(=O)N(CC(=O)N(CCCCN)CC(=O)N(CCc1c[nH]c2ccccc12)CC(=O)N(CCc1c[nH]c2ccccc12)CC(N)=O)[C@@H](C)c1ccccc1)[C@@H](C)c1ccccc1)C(=O)CN(C(=O)CN(CCCCN)C(=O)CN(CCc1c[nH]c2ccccc12)C(=O)CN(CCc1c[nH]c2ccccc12)C(=O)CNCCCCN)[C@@H](C)c1ccccc1 [Peptoid 18] (H-[Nlys][Gly(N(CH2)2(3-indolyl))][Gly(N(CH2)2(3-indolyl))][Nlys][Nspe][Nspe][Nlys][Nspe][Nspe][Nlys][Gly(N(CH2)2(3-indolyl))][Gly(N(CH2)2(3-indolyl))]-NH2) |  |  | 3.1 (≈ 6.12 µg/mL) |  |  | 12.5 (≈ 24.7 µg/mL) | 14.3 | 37.8 | 103.5 ± 4.3% |  |  |  |  |
| C[C@@H](c1ccccc1)N(CC(N)=O)C(=O)CN(CCc1c[nH]cn1)C(=O)CN(CCCCN)C(=O)CN(C(=O)CN(C(=O)CN(CCCCN)C(=O)CN(C(=O)CN(C(=O)CN(CCCCN)C(=O)CN(CCc1c[nH]c2ccccc12)C(=O)CN(CCc1c[nH]c2ccccc12)C(=O)CNCCCCN)[C@@H](C)c1ccccc1)[C@@H](C)c1ccccc1)[C@@H](C)c1ccccc1)[C@@H](C)c1ccccc1 [Peptoid 76] (H-[Nlys][Gly(N(CH2)2(3-indolyl))][Gly(N(CH2)2(3-indolyl))][Nlys][Nspe][Nspe][Nlys][Nspe][Nspe][Nlys][Gly(N-CH2CH2-imidazol-4-yl)][Nspe]-NH2) |  | 6.3 (≈ 11.9 µg/mL) |  |  |  |  |  |  | 10.1 ± 0.7 |  | >100.0/>100.0 | >100.0/>100.0 | 6.3 (≈ 11.9 µg/mL) |
| C[C@@H](c1ccccc1)N(CC(N)=O)C(=O)CN(CCCCN)C(=O)CN(CCCCN)C(=O)CN(C(=O)CN(C(=O)CN(CCCCN)C(=O)CN(C(=O)CN(C(=O)CN(CCCCN)C(=O)CN(CCc1c[nH]c2ccccc12)C(=O)CN(CCc1c[nH]c2ccccc12)C(=O)CNCCc1c[nH]cn1)[C@@H](C)c1ccccc1)[C@@H](C)c1ccccc1)[C@@H](C)c1ccccc1)[C@@H](C)c1ccccc1 [Peptoid 72] (H-[Gly(N-CH2CH2-imidazol-4-yl)][Gly(N(CH2)2(3-indolyl))][Gly(N(CH2)2(3-indolyl))][Nlys][Nspe][Nspe][Nlys][Nspe][Nspe][Nlys][Nlys][Nspe]-NH2) |  | 6.3 (≈ 11.9 µg/mL) |  |  |  |  |  |  | 11.8 ± 1.1 |  | 88.9 | > 100.0 | 6.3 (≈ 11.9 µg/mL) |
| C[C@@H](c1ccccc1)N(CC(N)=O)C(=O)CN(CCCCN)C(=O)CN(CCCCN)C(=O)CN(C(=O)CN(C(=O)CN(CCCCN)C(=O)CN(C(=O)CN(C(=O)CN(CCc1c[nH]cn1)C(=O)CN(CCc1c[nH]c2ccccc12)C(=O)CN(CCc1c[nH]c2ccccc12)C(=O)CNCCCCN)[C@@H](C)c1ccccc1)[C@@H](C)c1ccccc1)[C@@H](C)c1ccccc1)[C@@H](C)c1ccccc1 [Peptoid 73] (H-[Nlys][Gly(N(CH2)2(3-indolyl))][Gly(N(CH2)2(3-indolyl))][Gly(N-CH2CH2-imidazol-4-yl)][Nspe][Nspe][Nlys][Nspe][Nspe][Nlys][Nlys][Nspe]-NH2) |  | 3.1 (≈ 5.85 µg/mL) |  |  |  |  |  |  | 10.0 ± 0.3 |  | >100.0/>100.0 | >100.0/>100.0 | 6.3 (≈ 11.9 µg/mL) |
| C[C@@H](c1ccccc1)N(CC(=O)N(CCCCN)CC(=O)N(CC(=O)N(CC(=O)N(CCCCN)CC(=O)N(CC(=O)N(CC(=O)N(CCCCN)CC(=O)N(CCc1c[nH]c2ccccc12)CC(=O)N(CCc1c[nH]c2ccccc12)CC(N)=O)[C@@H](C)c1ccccc1)[C@@H](C)c1ccccc1)[C@@H](C)c1ccccc1)[C@@H](C)c1ccccc1)C(=O)CN(C(=O)CNCCCCN)[C@@H](C)c1ccccc1 [Peptoid 11-2] (H-[Nlys][Nspe][Nspe][Nlys][Nspe][Nspe][Nlys][Nspe][Nspe][Nlys][Gly(N(CH2)2(3-indolyl))][Gly(N(CH2)2(3-indolyl))]-NH2) |  |  |  |  | 3.1 |  | 8.7 | 29.7 | 110.4 ± 0.2% | 1.6 |  |  |  |

Source: patent US20240226228A1, “ANTIMICROBIAL PEPTOID HAVING IMPROVED SELECTIVITY AND ANTIMICROBIAL COMPOSITION COMPRISING SAME” (priority 2021, published 2024)
